Measured values: ChEMBL document CHEMBL4680300, “Synthesis, biological evaluation, and NMR studies of 3-fluorinated derivatives of 3',4',5'-trihydroxyflavone and 3',4',5'-trimethoxyflavone” (Bioorg Med Chem Lett, 2021)
Converted amounts (≈) assume the structure as drawn. The source made the active and inactive calls. No cut-off for these calls is given here.

How the values were obtained:
[1] = Antioxidant activity assessed as DPPH radical scavenging activity incubated for 20 mins in dark conditions; format: functional
Neuron [2] = test: Neuroprotective activity in Sprague-Dawley rat cortical neurons assessed as reduction in glutamate-induced cell death preincubated for 1 hr followed by glutamate stimulation and measured after 24 hrs by MTS assay; format: functional, tissue-based; conditions: time 25.0 hrs
Neuron [3] = test: Neuroprotective activity in Sprague-Dawley rat cortical neurons assessed as reduction in glutamate-induced reactive oxygen species level incubated for 1 hr by DCFDA fluorescence-based microplate reader relative to control; format: functional, tissue-based
[4] = Stability of the compound in DMSO assessed as formation of ortho-quinone intermediate in presence of DPPH measured after 20 mins by NMR analysis; format: physicochemical
[5] = Stability of the compound in DMSO assessed as formation of ortho-quinone intermediate in presence of DPPH measured by mass spectrometry; format: physicochemical

Compound	EC50 [1] [µg/mL]	Activity (Neuron [2])	Activity (Neuron [3])	Stabilty [4]	Stabilty [5]
O=C1O[C@H]([C@@H](O)CO)C(O)=C1O [ASCORBIC ACID]	0.16 (≈ 0.908 µM)				
O=c1c(F)c(-c2cc(O)c(O)c(O)c2)oc2ccccc12	0.24 (≈ 0.833 µM)	Active	Active	Unstable	Unstable
O=c1cc(-c2cc(O)c(O)c(O)c2)oc2ccccc12	0.33 (≈ 1.22 µM)	Active			
COc1cc(-c2cc(=O)c3ccccc3o2)cc(OC)c1OC	71.66 (≈ 229 µM)				
C[C@]12N[C@H](Cc3ccccc31)c1ccccc12		Active			
COc1cc(-c2oc3ccccc3c(=O)c2F)cc(OC)c1OC	37.14 (≈ 112 µM)				
